{"source": "ChEMBL document CHEMBL4706505", "about": "“F10, a new camptothecin derivative, was identified as a new orally-bioavailable, potent antitumor agent” (Eur J Med Chem, 2020)", "key": {"[1]": {"assay": "AUC (0 to infinity) in nude BALB/c mouse serum at 8.0 mg/kg incubated up to 9 hrs, iv administered […] by LC-MS/MS analysis", "format": "ADME, organism-based", "design": "route intravenous, dose 8 mg/kg, time <=9", "conditions": "in vivo"}, "[2]": {"test_system": "HCT-116", "assay": "Antitumor activity against human HCT-116 cells xenografted in nude BALB/c mouse assessed as tumor growth inhibition at 8 mg/kg, po dosed once the other day for 12 times upto 24 days", "format": "functional", "design": "scale not given: the % may be the effect or the level left", "conditions": "time day <=24"}, "[3]": {"assay": "Half life in nude BALB/c mouse serum at 8.0 mg/kg incubated up to 9 hrs, po administered via gavage by LC-MS/MS analysis", "format": "ADME, organism-based"}, "[4]": {"test_system": "HCT-116", "assay": "Inhibition of colony formation in human HCT-116 cells incubated for 12 days by crystal violet dye based assay", "format": "functional, cell-based", "conditions": "dose 0.001-1 nM, time 12.0 day"}, "[5]": {"test_system": "HCT-116", "assay": "Induction of apoptosis in human HCT-116 cells assessed as late apoptotic cells level at 1 uM incubated for 24 hrs by Annexin V-FITC/PI staining based flow cytometry (reference value: 0.07%)", "format": "functional"}, "[6]": {"test_system": "Raji", "assay": "Antitumor activity against NPG mouse xenografted with human Raji cell assessed as decrease in tumor volume at 4 mg/kg, ip measured on the 1 day", "format": "functional"}, "[7]": {"test_system": "Raji", "assay": "Antitumor activity against NPG mouse xenografted with human Raji cell assessed as tumor growth inhibition at 2 mg/kg, ip measured after 5 day", "format": "functional", "conditions": "120 h, read-out: TGI"}, "[8]": {"test_system": "HCT-116", "assay": "Antitumor activity against human HCT-116 cells xenografted in nude BALB/c mouse assessed as tumor growth inhibition at 0.2 mg/kg, ip dosed once the other day for 24 days", "format": "functional", "conditions": "HCT-116, ip, 576 h, time 24 day, read-out: TGI"}, "[9]": {"assay": "Toxicity in NPG mouse xenografted with human Raji cells assessed as body weight loss at 8 mg/kg, ig measured after 5 day", "format": "organism-based", "conditions": "in vivo, po, 120 h"}, "[10]": {"test_system": "A549", "assay": "Cytotoxicity against human A549 assessed as reduction in cell viability measured after 72 hrs by MTT assay", "format": "functional, cell-based", "conditions": "A549, 72 h"}, "[11]": {"assay": "MRT (0 to infinity) in nude BALB/c mouse serum at 8.0 mg/kg incubated up to 9 hrs, po administered via gavage by LC-MS/MS analysis", "format": "ADME, organism-based"}, "[12]": {"test_system": "HCT-116", "assay": "Antitumor activity against human HCT-116 cells xenografted in nude BALB/c mouse assessed as tumor growth inhibition at 2 mg/kg, po dosed once the other day for 12 times upto 24 days", "format": "functional", "conditions": "HCT-116, po, 576 h, time day <=24, read-out: TGI"}, "[13]": {"assay": "Toxicity in Kunming mouse assessed as mortality at 300 mg/kg, po measured once every 30 mins upto 10 days", "format": "organism-based", "conditions": "in vivo, 0.5 h"}, "[14]": {"assay": "Toxicity in NPG mouse xenografted with human Raji cells assessed as body weight loss at 8 mg/kg, ig measured on the 1 day", "format": "organism-based", "conditions": "in vivo, po, 24 h"}, "[15]": {"test_system": "Raji", "assay": "Antitumor activity against NPG mouse xenografted with human Raji cell assessed as decrease in tumor volume at 2 mg/kg, ip measured on the 1 day", "format": "functional"}, "[16]": {"test_system": "Raji", "assay": "Antitumor activity against NPG mouse xenografted with human Raji cell assessed as decrease in tumor volume at 4 mg/kg, ig measured after 5 day", "format": "functional"}, "[17]": {"assay": "Clearance in nude BALB/c mouse serum at 8.0 mg/kg incubated up to 9 hrs, po administered via gavage by LC-MS/MS analysis", "format": "ADME, organism-based"}, "[18]": {"assay": "Toxicity in Kunming mouse assessed as mortality at 30 mg/kg, iv measured once every 30 mins upto 10 days", "format": "organism-based", "conditions": "in vivo, 0.5 h"}, "[19]": {"test_system": "HCT-116", "assay": "Antitumor activity against human HCT-116 cells xenografted in nude BALB/c mouse assessed as tumor growth inhibition at 1 mg/kg, ip dosed once the other day for 24 days", "format": "functional", "conditions": "HCT-116, ip, 576 h, time 24 day, read-out: TGI"}, "[20]": {"assay": "Toxicity in NPG mouse xenografted with human Raji cells assessed as body weight loss at 4 mg/kg, ip measured on the day 1", "format": "organism-based", "conditions": "in vivo"}, "[21]": {"assay": "Toxicity in NPG mouse xenografted with human Raji cells assessed as body weight loss at 4 mg/kg, ip measured after 5 day", "format": "organism-based", "conditions": "in vivo, 120 h"}, "[22]": {"test_system": "Raji", "assay": "Antitumor activity against NPG mouse xenografted with human Raji cell assessed as decrease in tumor volume at 4 mg/kg, ig measured on the 1 day", "format": "functional"}, "[23]": {"assay": "Toxicity in Kunming mouse assessed as mortality at 300 mg/kg ip measured once every 30 mins upto 10 days", "format": "organism-based", "conditions": "in vivo, 0.5 h"}, "[24]": {"assay": "Solubility of compound in water incubated for 24 hrs under shaking condition by HPLC analysis", "format": "physicochemical"}, "[25]": {"test_system": "HCT-116", "assay": "Antitumor activity against human HCT-116 cells xenografted in nude BALB/c mouse assessed as tumor growth inhibition at 0.5 mg/kg, po dosed once the other day for 12 times upto 24 days", "format": "functional", "conditions": "HCT-116, po, 576 h, time day <=24, read-out: TGI"}, "[26]": {"test_system": "HCT-116", "assay": "Antitumor activity against human HCT-116 cells xenografted in nude BALB/c mouse assessed as tumor growth inhibition at 0.5 mg/kg, ip dosed once the other day for 24 days", "format": "functional", "conditions": "HCT-116, ip, 576 h, time 24 day, read-out: TGI"}, "[27]": {"test_system": "Raji", "assay": "Antitumor activity against NPG mouse xenografted with human Raji cell assessed as decrease in tumor volume at 4 mg/kg, ip measured after 5 day", "format": "functional"}, "[28]": {"test_system": "NCI-H1975", "assay": "Cytotoxicity against human NCI-H1975 assessed as reduction in cell viability measured after 72 hrs by MTT assay", "format": "functional, cell-based", "conditions": "NCI-H1975, 72 h"}, "[29]": {"assay": "Oral bioavailability in nude BALB/c mouse serum at 8.0 mg/kg incubated up to 9 hrs, via gavage by LC-MS/MS analysis", "format": "ADME, organism-based"}, "[30]": {"test_system": "Raji", "assay": "Antitumor activity against NPG mouse xenografted with human Raji cell assessed as decrease in tumor volume at 8 mg/kg, ig measured after 5 day", "format": "functional"}, "[31]": {"test_system": "HCT-116", "assay": "Induction of apoptosis in human HCT-116 cells assessed as late apoptotic cells level at 0.001 uM incubated for 24 hrs by Annexin V-FITC/PI staining based flow cytometry (reference value: 0.07%)", "format": "functional"}, "[32]": {"assay": "Half life in nude BALB/c mouse serum at 8.0 mg/kg incubated up to 9 hrs, iv administered […] by LC-MS/MS analysis", "format": "ADME, organism-based"}, "[33]": {"assay": "Cmax in nude BALB/c mouse serum at 8.0 mg/kg incubated up to 9 hrs, iv administered […] by LC-MS/MS analysis", "format": "ADME, organism-based", "design": "route intravenous, dose 8 mg/kg, time <=9"}}, "note": "Activity calls are given as the source filed them. No cut-off for these calls is given here."}
{"compound": "CCc1c2c(nc3ccc(OCC(=O)N4CCCCC4)cc13)-c1cc3c(c(=O)n1C2)COC(=O)[C@]3(O)CC", "values": [{"measurement": "AUC", "setting": "[1]", "result": 748.96, "unit": "h/ng/mL"}, {"measurement": "Activity", "setting": "[2]", "result": 96.2, "unit": "%"}, {"measurement": "half-life", "setting": "[3]", "result": 87.6, "unit": "min"}, {"measurement": "inhibition", "setting": "[4]", "result": "Active"}, {"measurement": "Activity", "setting": "[5]", "result": 6.4, "unit": "%"}, {"measurement": "Activity", "setting": "[6]", "result": 1186, "unit": "mm3"}, {"measurement": "inhibition in vivo at 2 mg/kg", "setting": "[7]", "result": 104, "unit": "%"}, {"measurement": "inhibition in vivo at 0.2 mg/kg", "setting": "[8]", "result": 71.8, "unit": "%"}, {"measurement": "Activity", "setting": "[9]", "result": 22.5, "unit": "g"}, {"measurement": "IC50", "setting": "[10]", "result": 11, "unit": "nM"}, {"measurement": "MRT inf", "setting": "[11]", "result": 1.15, "unit": "h"}, {"measurement": "inhibition in vivo at 2 mg/kg", "setting": "[12]", "result": 79.6, "unit": "%"}, {"measurement": "Activity", "setting": "[13]", "result": "Toxic"}, {"measurement": "Activity", "setting": "[14]", "result": 24.6, "unit": "g"}, {"measurement": "Activity", "setting": "[15]", "result": 983, "unit": "mm3"}, {"measurement": "Activity", "setting": "[16]", "result": 1203, "unit": "mm3"}, {"measurement": "CL/F", "setting": "[17]", "result": 0.794, "unit": "mL/min"}, {"measurement": "Activity", "setting": "[18]", "result": "Non-Toxic"}, {"measurement": "inhibition in vivo at 1 mg/kg", "setting": "[19]", "result": 90.2, "unit": "%"}, {"measurement": "Activity", "setting": "[20]", "result": 24.8, "unit": "g"}, {"measurement": "Activity", "setting": "[21]", "result": 19.2, "unit": "g"}, {"measurement": "Activity", "setting": "[22]", "result": 900, "unit": "mm3"}, {"measurement": "Activity", "setting": "[23]", "result": "Non-Toxic"}, {"measurement": "solubility thermodynamic at 24 h", "setting": "[24]", "result": 6.22, "unit": "µg/mL"}, {"measurement": "inhibition in vivo at 0.5 mg/kg", "setting": "[25]", "result": 48.1, "unit": "%"}, {"measurement": "inhibition in vivo at 0.5 mg/kg", "setting": "[26]", "result": 92, "unit": "%"}, {"measurement": "Activity", "setting": "[27]", "result": 729, "unit": "mm3"}, {"measurement": "IC50", "setting": "[28]", "result": 84, "unit": "nM"}, {"measurement": "bioavailability", "setting": "[29]", "result": 22.4, "unit": "%"}, {"measurement": "Activity", "setting": "[30]", "result": 1374, "unit": "mm3"}, {"measurement": "Activity", "setting": "[31]", "result": 5.48, "unit": "%"}, {"measurement": "half-life", "setting": "[32]", "result": 61.8, "unit": "min"}, {"measurement": "Cmax", "setting": "[33]", "result": 1630, "unit": "ng/mL"}]}
